Results reported in patent US8329904B2, “Azacyclic derivatives” (Hoffmann-La Roche Inc., priority 2009, dated 2012).

Biological target: T1, human HSL (Homo sapiens, UniProt Q05469)
T1 construct: overlapping PCR to generate a full length human HSL ORF with a 3′-His6 tag; His6 (C); made in house; host or cells: High 5 insect cells (baculovirus, pFast-BAC)
T1 sequence (Q05469 1-1076): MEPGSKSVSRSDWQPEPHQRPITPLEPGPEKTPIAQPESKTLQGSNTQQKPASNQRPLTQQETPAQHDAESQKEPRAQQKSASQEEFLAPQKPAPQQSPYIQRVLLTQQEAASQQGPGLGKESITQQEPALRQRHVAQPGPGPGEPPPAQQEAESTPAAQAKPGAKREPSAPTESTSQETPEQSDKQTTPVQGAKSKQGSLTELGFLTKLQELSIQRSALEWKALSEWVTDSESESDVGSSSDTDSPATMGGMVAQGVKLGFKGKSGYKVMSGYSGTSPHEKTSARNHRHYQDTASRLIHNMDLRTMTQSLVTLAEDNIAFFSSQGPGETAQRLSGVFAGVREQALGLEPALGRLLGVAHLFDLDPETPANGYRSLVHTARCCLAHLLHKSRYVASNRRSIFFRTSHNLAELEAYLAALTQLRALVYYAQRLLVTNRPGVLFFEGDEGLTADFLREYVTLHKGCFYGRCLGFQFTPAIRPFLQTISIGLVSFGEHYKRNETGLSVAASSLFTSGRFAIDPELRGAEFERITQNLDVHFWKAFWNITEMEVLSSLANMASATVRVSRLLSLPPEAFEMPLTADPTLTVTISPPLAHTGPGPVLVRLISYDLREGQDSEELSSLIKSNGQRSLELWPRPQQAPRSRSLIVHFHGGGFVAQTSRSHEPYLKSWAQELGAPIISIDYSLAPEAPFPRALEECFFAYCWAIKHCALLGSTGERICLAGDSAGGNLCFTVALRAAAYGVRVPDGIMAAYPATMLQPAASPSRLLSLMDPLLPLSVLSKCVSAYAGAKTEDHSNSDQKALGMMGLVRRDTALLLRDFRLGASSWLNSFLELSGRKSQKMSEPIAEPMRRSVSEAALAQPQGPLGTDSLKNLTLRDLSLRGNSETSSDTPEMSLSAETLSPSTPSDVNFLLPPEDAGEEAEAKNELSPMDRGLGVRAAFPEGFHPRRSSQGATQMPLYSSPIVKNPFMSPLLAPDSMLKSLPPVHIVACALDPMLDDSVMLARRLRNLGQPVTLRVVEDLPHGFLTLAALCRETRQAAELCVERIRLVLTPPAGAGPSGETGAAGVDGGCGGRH
Test: Human Hormone-Sensitive Lipase (HSL) Enzyme Inhibition Assay
Format: biochemical
Settings: colorimetric assay, 2,3-dimercapto-1-propanol tributyrate (DMPT) substrate, 37° C. for 20 minutes, absorbance at 405 nm; read-out: HSL hum IC50
Outline: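 Colorimetric thioester hydrolysis: compounds in DMSO series mixed with DMPT (1.5 mM) in MOPS pH 7.2 with BSA, then baculovirus-expressed His6-tagged full-length human HSL added, 37° C, 20 min. DTNB plus detergents added, 15 min room temperature, absorbance at 405 nm.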

Row | SMILES | IC50
1 | O=C1N(CCc2cccc(F)c2)CCC12CCN(S(=O)(=O)c1ccccc1Cl)CC2 [Example 243, 8-(2-Chloro-benzenesulfonyl)-2-[2-(3-fluoro-phenyl)-ethyl]-2,8-diaza-spiro[4.5]decan-1-one] | 50 nM
2 | COc1cccc(CCN2CCC3(CCN(S(=O)(=O)c4ccccc4Cl)CC3)C2=O)c1 [Example 244, 8-(2-Chloro-benzenesulfonyl)-2-[2-(3-methoxy-phenyl)-ethyl]-2,8-diaza-spiro[4.5]decan-1-one] | 230 nM
3 | O=C1N(CCc2cccc(C(F)(F)F)c2)CCC12CCN(S(=O)(=O)c1ccccc1Cl)CC2 [Example 245, 8-(2-Chloro-benzenesulfonyl)-2-[2-(3-trifluoromethyl-phenyl)-ethyl]-2,8-diaza-spiro[4.5]decan-1-one] | 100 nM
4 | O=C1N(CCCCc2ccccc2)CCC12CCN(S(=O)(=O)c1ccccc1Cl)CC2 [Example 246, 8-(2-Chloro-benzenesulfonyl)-2-(4-phenyl-butyl)-2,8-diaza-spiro[4.5]decan-1-one] | 80 nM
5 | O=C1N(CCc2cccc(Cl)c2)CCC12CCN(S(=O)(=O)c1ccccc1Cl)CC2 [Example 247, 8-(2-Chloro-benzenesulfonyl)-2-[2-(3-chloro-phenyl)-ethyl]-2,8-diaza-spiro[4.5]decan-1-one] | 80 nM
6 | O=C1N(CCc2ccc(Cl)c(Cl)c2)CCC12CCN(S(=O)(=O)c1ccccc1Cl)CC2 [Example 248, 8-(2-Chloro-benzenesulfonyl)-2-[2-(3,4-dichloro-phenyl)-ethyl]-2,8-diaza-spiro[4.5]decan-1-one] | 70 nM
7 | CC(Cc1ccc(F)cc1)N1CCC2(CCN(S(=O)(=O)c3ccccc3Cl)CC2)C1=O (stereo not drawn) [Example 249, 8-(2-Chloro-benzenesulfonyl)-2-[2-(4-fluoro-phenyl)-1-methyl-ethyl]-2,8-diaza-spiro[4.5]decan-1-one] | 460 nM
8 | CCc1ccc(N2CCC3(CCN(S(=O)(=O)c4ccccc4Cl)CC3)C2=O)cn1 [Example 250, 8-(2-Chloro-benzenesulfonyl)-2-(6-ethyl-pyridin-3-yl)-2,8-diaza-spiro[4.5]decan-1-one] | 110 nM
9 | CCCNC(=O)N1CCC2(CC1)CCN(c1ccc(OC(F)(F)F)cc1)C2=O [Example 251, 1-Oxo-2-(4-trifluoromethoxy-phenyl)-2,8-diaza-spiro[4.5]decane-8-carboxylic acid propylamide] | 470 nM
10 | CCCN(C)C(=O)N1CCC2(CC1)CCN(c1ccc(CC)cc1)C2=O [Example 252, 2-(4-Ethyl-phenyl)-1-oxo-2,8-diaza-spiro[4.5]decane-8-carboxylic acid methyl-propyl-amide] | 180 nM
11 | CCCN(C)C(=O)N1CCC2(CC1)CCN(c1ccc(OC(F)(F)F)cc1)C2=O [Example 253, 1-Oxo-2-(4-trifluoromethoxy-phenyl)-2,8-diaza-spiro[4.5]decane-8-carboxylic acid methyl-propyl-amide] | 140 nM
12 | CC(C)NC(=O)N1CCC2(CC1)CCN(c1ccc(OC(F)(F)F)cc1)C2=O [Example 254, 1-Oxo-2-(4-trifluoromethoxy-phenyl)-2,8-diaza-spiro[4.5]decane-8-carboxylic acid isopropylamide] | 400 nM
13 | CCc1ccc(N2CCC3(CCN(C(=O)N4CCCCC4)CC3)C2=O)cc1 [Example 255, 2-(4-Ethyl-phenyl)-8-(piperidine-1-carbonyl)-2,8-diaza-spiro[4.5]decan-1-one] | 180 nM
14 | O=C(N1CCCCC1)N1CCC2(CC1)CCN(c1ccc(OC(F)(F)F)cc1)C2=O [Example 256, 8-(Piperidine-1-carbonyl)-2-(4-trifluoromethoxy-phenyl)-2,8-diaza-spiro[4.5]decan-1-one] | 100 nM
15 | O=C(N1CCOCC1)N1CCC2(CC1)CCN(c1ccc(OC(F)(F)F)cc1)C2=O [Example 257, 8-(Morpholine-4-carbonyl)-2-(4-trifluoromethoxy-phenyl)-2,8-diaza-spiro[4,5]decan-1-one] | 610 nM
16 | CCc1ccc(N2CCC3(CCN(C(=O)Nc4ccc(F)cc4)CC3)C2=O)cc1 [Example 258, 2-(4-Ethyl-phenyl)-1-oxo-2,8-diaza-spiro[4.5]decane-8-carboxylic acid (4-fluoro-phenyl)-amide] | 400 nM
17 | O=C(Nc1ccc(F)cc1)N1CCC2(CC1)CCN(c1ccc(OC(F)(F)F)cc1)C2=O [Example 259, 1-Oxo-2-(4-trifluoromethoxy-phenyl)-2,8-diaza-spiro[4.5]decane-8-carboxylic acid (4-fluoro-phenyl)-amide] | 400 nM
18 | CCc1ccc(N2CCC3(CCN(C(=O)NCc4ccc(F)cc4)CC3)C2=O)cc1 [Example 260, 2-(4-Ethyl-phenyl)-1-oxo-2,8-diaza-spiro[4.5]decane-8-carboxylic acid 4-fluoro-benzylamide] | 310 nM
19 | O=C(NCc1ccc(F)cc1)N1CCC2(CC1)CCN(c1ccc(OC(F)(F)F)cc1)C2=O [Example 261, 1-Oxo-2-(4-trifluoromethoxy-phenyl)-2,8-diaza-spiro[4.5]decane-8-carboxylic acid 4-fluoro-benzylamide] | 190 nM
20 | O=C(NCc1ccccc1Cl)N1CCC2(CC1)CCN(c1ccc(OC(F)(F)F)cc1)C2=O [Example 262, 1-Oxo-2-(4-trifluoromethoxy-phenyl)-2,8-diaza-spiro[4.5]decane-8-carboxylic acid 2-chloro-benzylamide] | 340 nM
21 | CCc1ccc(N2CCC3(CCN(C(=O)NCCc4ccccc4)CC3)C2=O)cc1 [Example 263, 2-(4-Ethyl-phenyl)-1-oxo-2,8-diaza-spiro[4.5]decane-8-carboxylic acid phenethyl-amide] | 160 nM
22 | O=C(NCCc1ccccc1)N1CCC2(CC1)CCN(c1ccc(OC(F)(F)F)cc1)C2=O [Example 264, 1-Oxo-2-(4-trifluoromethoxy-phenyl)-2,8-diaza-spiro[4.5]decane-8-carboxylic acid phenethyl-amide] | 140 nM
23 | O=C(N1CCCC1)N1CCC2(CC1)CCN(c1ccc(OC(F)(F)F)cc1)C2=O [Example 265, 8-(Pyrrolidine-1-carbonyl)-2-(4-trifluoromethoxy-phenyl)-2,8-diaza-spiro[4.5]decan-1-one] | 200 nM
24 | CCN(CC)C(=O)N1CCC2(CC1)CCN(c1ccc(OC(F)(F)F)cc1)C2=O [Example 266, 1-Oxo-2-(4-trifluoromethoxy-phenyl)-2,8-diaza-spiro[4.5]decane-8-carboxylic acid diethylamide] | 330 nM
25 | CC1CCCN1C(=O)N1CCC2(CC1)CCN(c1ccc(OC(F)(F)F)cc1)C2=O (stereo not drawn) [Example 267, 8-(2-Methyl-pyrrolidine-1-carbonyl)-2-(4-trifluoromethoxy-phenyl)-2,8-diaza-spiro[4.5]decan-1-one] | 150 nM
26 | CCCN(CC)C(=O)N1CCC2(CC1)CCN(c1ccc(OC(F)(F)F)cc1)C2=O [Example 268, 1-Oxo-2-(4-trifluoromethoxy-phenyl)-2,8-diaza-spiro[4.5]decane-8-carboxylic acid ethyl-propyl-amide] | 220 nM
27 | CCCCN(C)C(=O)N1CCC2(CC1)CCN(c1ccc(OC(F)(F)F)cc1)C2=O [Example 269, 1-Oxo-2-(4-trifluoromethoxy-phenyl)-2,8-diaza-spiro[4.5]decane-8-carboxylic acid butyl-methyl-amide] | 70 nM
28 | CC(C)CN(C)C(=O)N1CCC2(CC1)CCN(c1ccc(OC(F)(F)F)cc1)C2=O [Example 270, 1-Oxo-2-(4-trifluoromethoxy-phenyl)-2,8-diaza-spiro[4.5]decane-8-carboxylic acid isobutyl-methyl-amide] | 70 nM
29 | O=C(N1CCCCCC1)N1CCC2(CC1)CCN(c1ccc(OC(F)(F)F)cc1)C2=O [Example 271, 8-(Azepane-1-carbonyl)-2-(4-trifluoromethoxy-phenyl)-2,8-diaza-spiro[4.5]decan-1-one] | 220 nM
30 | CC1CCCCN1C(=O)N1CCC2(CC1)CCN(c1ccc(OC(F)(F)F)cc1)C2=O (stereo not drawn) [Example 272, 8-(2-Methyl-piperidine-1-carbonyl)-2-(4-trifluoromethoxy-phenyl)-2,8-diaza-spiro[4.5]decan-1-one] | 100 nM
